In US9868736B2, “Deubiquitinase inhibitors and methods for use of the same” (THE REGENTS OF THE UNIVERSITY OF MICHIGAN, priority 2013, dated 2018):
Entries after “also recorded” stand apart in the source; their conditions may differ.

Key:
[1] = biological target: T1, catalytic domain of Usp9x (Usp9xCD) (Homo sapiens, UniProt Q93008); test: Usp9xCD Ub-AMC enzyme assay; format: biochemical; conditions: screen of 210 structures
T1 construct: DNA corresponding to amino acids 1553-1960 of human Usp9x; His6-Smt3 (SUMO) fusion tag, ULP1-cleavable (N, cleaved yes); made in house; host or cells: E. coli
T1 sequence (Q93008 1553-1960): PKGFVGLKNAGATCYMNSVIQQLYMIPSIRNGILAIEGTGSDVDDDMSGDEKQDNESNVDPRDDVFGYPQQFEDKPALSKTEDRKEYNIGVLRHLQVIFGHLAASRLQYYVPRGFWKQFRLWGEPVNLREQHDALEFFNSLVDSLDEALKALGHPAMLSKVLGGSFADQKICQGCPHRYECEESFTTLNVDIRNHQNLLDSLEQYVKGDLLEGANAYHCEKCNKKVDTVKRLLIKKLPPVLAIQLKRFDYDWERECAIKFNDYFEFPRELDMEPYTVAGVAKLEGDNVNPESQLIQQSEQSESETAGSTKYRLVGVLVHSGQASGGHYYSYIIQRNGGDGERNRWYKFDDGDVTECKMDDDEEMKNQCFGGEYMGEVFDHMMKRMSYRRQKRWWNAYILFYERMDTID
Protocol: A series of chemical modifications were initiated to increase our structure activity relationship (SAR) analysis of inhibitors. […] The DNA was cloned into a ULP1-protease cleavable N-terminal His6-Smt3-fusion tag expression vector, derived from pET-28. Protein expression was induced at OD600 2.0, in TB media with Kanamycin overnight at 16° C. Cells were harvested and flash frozen before use. […] Protein was concentrated to roughly 20-40 mg/ml before aliquots were flash-frozen. All steps were performed in the presence of reducing agents, either BME, DTT, or TCEP.
Purified recombinant enzyme in buffer containing 2 mM DTT was buffer exchanged into 25 mM Tris-HCl, 50 mM NaCl and 1 mg/ml BSA using a spin column. […] IC50 values were estimated by integrating the slope of each reaction using GraphPad 6.
Two hundred and ten (210) novel chemical structures were screened for Usp9xCD inhibitory activity using this assay. […] Fluorescent scans were used to assess Usp9xCD inhibitory activity in this enzyme assay for all compounds of interest. Each assay was performed in duplicate and the linear region of each reaction curve was used to calculate IC50 values for Usp9xCD inhibition which are tabulated in Table 1.

Usp24 = Usp24 (Homo sapiens, UniProt Q9UPU5); test: Usp24 inhibition
Usp24, sequence (Q9UPU5 whole entry): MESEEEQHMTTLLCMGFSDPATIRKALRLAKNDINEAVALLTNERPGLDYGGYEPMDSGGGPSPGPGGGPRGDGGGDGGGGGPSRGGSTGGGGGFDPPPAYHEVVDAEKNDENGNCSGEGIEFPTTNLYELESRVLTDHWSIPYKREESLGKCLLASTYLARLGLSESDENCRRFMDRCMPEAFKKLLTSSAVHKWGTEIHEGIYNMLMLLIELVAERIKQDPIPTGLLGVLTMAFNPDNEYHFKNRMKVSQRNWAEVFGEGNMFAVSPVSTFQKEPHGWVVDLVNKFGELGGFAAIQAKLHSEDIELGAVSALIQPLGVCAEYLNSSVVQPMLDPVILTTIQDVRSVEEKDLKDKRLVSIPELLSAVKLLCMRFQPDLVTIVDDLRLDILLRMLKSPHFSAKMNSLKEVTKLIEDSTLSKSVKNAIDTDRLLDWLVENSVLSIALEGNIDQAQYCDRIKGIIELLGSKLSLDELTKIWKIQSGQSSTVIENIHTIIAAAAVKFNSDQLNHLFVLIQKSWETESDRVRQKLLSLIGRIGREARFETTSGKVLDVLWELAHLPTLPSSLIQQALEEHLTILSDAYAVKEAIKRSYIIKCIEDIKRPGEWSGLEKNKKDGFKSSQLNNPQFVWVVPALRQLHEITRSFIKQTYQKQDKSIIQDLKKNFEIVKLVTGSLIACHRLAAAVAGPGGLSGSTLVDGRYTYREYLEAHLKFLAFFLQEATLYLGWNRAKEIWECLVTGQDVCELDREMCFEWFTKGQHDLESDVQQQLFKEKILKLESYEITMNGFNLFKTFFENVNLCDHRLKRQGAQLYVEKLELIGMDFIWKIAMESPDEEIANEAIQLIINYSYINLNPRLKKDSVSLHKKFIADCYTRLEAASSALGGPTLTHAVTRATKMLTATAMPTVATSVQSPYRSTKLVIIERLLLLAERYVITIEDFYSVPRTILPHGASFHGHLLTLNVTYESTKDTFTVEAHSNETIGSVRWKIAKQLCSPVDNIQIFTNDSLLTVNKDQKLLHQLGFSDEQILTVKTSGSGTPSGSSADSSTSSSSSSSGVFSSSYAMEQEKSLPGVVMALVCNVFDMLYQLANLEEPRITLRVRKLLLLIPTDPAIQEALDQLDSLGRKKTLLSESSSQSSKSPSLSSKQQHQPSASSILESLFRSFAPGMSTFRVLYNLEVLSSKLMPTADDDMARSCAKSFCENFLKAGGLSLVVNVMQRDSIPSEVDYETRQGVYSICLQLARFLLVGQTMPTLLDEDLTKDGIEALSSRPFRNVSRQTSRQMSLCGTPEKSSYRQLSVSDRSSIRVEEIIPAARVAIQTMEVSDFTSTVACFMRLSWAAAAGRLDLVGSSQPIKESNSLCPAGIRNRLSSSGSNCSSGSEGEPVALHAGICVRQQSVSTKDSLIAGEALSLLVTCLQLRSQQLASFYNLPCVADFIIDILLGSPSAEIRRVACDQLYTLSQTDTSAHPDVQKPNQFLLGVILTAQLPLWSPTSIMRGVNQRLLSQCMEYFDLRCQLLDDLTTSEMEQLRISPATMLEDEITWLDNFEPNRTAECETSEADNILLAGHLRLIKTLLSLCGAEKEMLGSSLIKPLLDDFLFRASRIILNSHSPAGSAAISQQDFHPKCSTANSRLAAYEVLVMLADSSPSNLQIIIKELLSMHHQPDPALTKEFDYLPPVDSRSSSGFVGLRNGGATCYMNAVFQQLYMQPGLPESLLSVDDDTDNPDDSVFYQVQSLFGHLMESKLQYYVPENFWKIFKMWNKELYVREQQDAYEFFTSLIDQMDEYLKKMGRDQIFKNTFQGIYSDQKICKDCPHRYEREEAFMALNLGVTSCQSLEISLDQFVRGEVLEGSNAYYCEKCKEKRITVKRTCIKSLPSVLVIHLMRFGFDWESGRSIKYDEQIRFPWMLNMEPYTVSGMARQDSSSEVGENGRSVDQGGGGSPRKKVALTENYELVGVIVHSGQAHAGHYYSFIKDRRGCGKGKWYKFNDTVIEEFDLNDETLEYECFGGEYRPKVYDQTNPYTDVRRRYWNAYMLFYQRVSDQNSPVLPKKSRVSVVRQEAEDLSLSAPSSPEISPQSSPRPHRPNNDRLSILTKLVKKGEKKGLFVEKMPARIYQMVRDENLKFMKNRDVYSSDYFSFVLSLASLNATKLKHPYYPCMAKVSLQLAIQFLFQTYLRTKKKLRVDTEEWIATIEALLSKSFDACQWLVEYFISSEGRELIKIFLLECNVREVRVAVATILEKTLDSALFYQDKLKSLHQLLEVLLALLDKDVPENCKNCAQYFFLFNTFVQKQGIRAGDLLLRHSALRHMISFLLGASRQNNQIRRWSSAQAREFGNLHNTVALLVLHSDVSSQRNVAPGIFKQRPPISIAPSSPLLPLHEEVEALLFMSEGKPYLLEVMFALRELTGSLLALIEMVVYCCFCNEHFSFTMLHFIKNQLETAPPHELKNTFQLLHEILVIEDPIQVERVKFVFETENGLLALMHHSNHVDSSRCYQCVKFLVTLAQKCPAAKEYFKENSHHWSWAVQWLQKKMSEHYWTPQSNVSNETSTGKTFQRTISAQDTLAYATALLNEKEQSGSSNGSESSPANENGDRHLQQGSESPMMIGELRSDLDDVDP

[2] = system: CD34+ cells from normal donors and myeloma cell lines (MM1.S, H929); test: apoptosis by annexin V staining (flow cytometry); format: cell-based; conditions: 24 hours
Protocol: Cellular apoptosis was measured by detection of annexin V on the surface of cells using flow cytometry. Cells were treated with the indicated concentration of G9 for 24 hours before assessing annexin positivity as an indication of […] using duplicate assays derived from duplicate samples. CD34+ cells from two normal donors (left) or two myeloma cell lines (right) were treated with the indicated concentration of G9 for 24 hours before measuring cell survival by annexin V staining (assessed by flow cytometry). Each data point represents the average of 2 samples assayed in duplicate and presented as the average+/−S.D. for each G9 concentration.

[3] = system: Sindbis virus, Tulane virus, LaCrosse virus, Norwalk virus replicon; test: antiviral screen against a variety of viruses; format: cell-based; conditions: Vero (Sindbis), LLC-MK (Tulane), Be2-c (LaCrosse), Norwalk virus replicon-containing cells, FIG. 9
[4] = plasma level in mice after IV, PO or IP administration (LC/MS); format: in vivo, Balb/c mice; conditions: for concentration at 0.5 h / concentration at 2 h / concentration at 4 h / concentration at 7 h / AUC(0-t) / half-life: Balb/c, mouse, plasma
Protocol: To determine whether G9 or 067 had anti-tumor activity in animals, we first assessed their properties in mice when introduced intravenously (IV) or by oral gavage (PO). G9 or 067 was administered once to two mice per group at the indicated dosage level and route (IV or PO) and plasma was collected at the time point indicated after administration. Compound concentration in the plasma was measured by high performance liquid chromatography coupled with mass spectroscopy detection (LC/MS).
Balb/c mice were treated with either 067 or G9 dissolved in dimethyl sulfoxide: polyethylene glycol 300 (1:1) and administered as indicated. The level of each compound in the plasma of each mouse at the time point indicated is shown in the line graph. The area under the curve (AUC) was calculated and tabulated below each line graph. […] The level of each compound in the plasma of each mouse at the time point indicated is shown Table 2. Several pharmacokinetic parameters were also calculated. […] The half-life of G9 was similar to 067 when administered by IP injection (30-60 min). Based on these assessments, G9 was further evaluated for anti-tumor activity in mice.

A375 tumors = test: A375 melanoma tumor growth in NSG mice; format: in vivo
Protocol: G9 suppresses Usp9x activity in A375 melanoma cells. The effect of G9 on the growth of A375 tumors in NSG mice was examined. Two million A375 cells in Matrigel: cell culture media (1:1) in 0.1 mL were injected subcutaneously in the dorsal region of 9 female NSG mice. After tumor growth to a measurable level (2 weeks post inoculation) animals were separated into 3 groups and mice received 0, 7.5 or 15 mg/kg G9 (prepared as described above) daily by IP injection for 8 days. Tumor volume (left) and animal weight (right) were measured every other day throughout the treatment interval and are reported in FIG. 6. […] Three animals per treatment group were evaluated in this study. Each data point represents the average+/−S.D. of measurements made in three mice. P-values were calculated using GraphPad Instat. P-values<0.05 are considered significant.
A375 tumors grown as subcutaneous implants in NSG mice were separated into three groups and received once daily ip injections with vehicle control (PEG300/DMSO) or G9 at doses of 7.5 or 15 mg/kg. Tumor growth, animal weight, behavior and mobility were monitored during treatment.

[5] = system: vemurafenib sensitive and resistant A375 melanoma cells; test: in vitro anti-tumor efficacy in A375 melanoma cells; format: cell-based; conditions: Homo sapiens, A-375
Text: Similar results were obtained in A375R Usp5 KD cells treated with a MEK inhibitor.

[6] = intravenous, 10 mg/kg, IV1 10 mg/kg
[7] = intravenous, 10 mg/kg, IV2 10 mg/kg
[8] = 7.5 or 15 mg/kg daily IP for 8 days

CCCC(NC(=O)/C(C#N)=C/c1nc(Cl)ccc1Cl)c1ccc(OCCN2CCOCC2)cc1 (stereo not shown) [Compound G9, (E)-2-Cyano-3-(3,6-dichloropyridin-2-yl)-N-(1-(4-(2-morpholinoethoxy)phenyl)butyl)acrylamide]
Usp9xCD inhibitory activity compared to WP1130 [1]: superior inhibitors of Usp9xCD
Usp24 inhibition (Usp24): inhibited the DUB Usp24
apoptotic sensitivity of myeloma tumor cells versus normal CD34+ cells [2]: more apoptotically sensitive to G9 than normal CD34+ cells
effectiveness in inducing apoptosis, tumor (myeloma) versus normal CD34+ cells [2]: ~10 fold
antiviral activity against a variety of viruses [3]: mild to high antiviral activity; also recorded: antiviral activity against Sindbis virus and La Crosse virus
concentration at 0.5 h [4, 6]: 1880 ng/mL
concentration at 2 h [4, 6]: 395 ng/mL
concentration at 4 h [4, 6]: 126 ng/mL
concentration at 7 h [4, 6]: 38.6 ng/mL
concentration at 0.5 h [4, 7]: 1220 ng/mL
concentration at 2 h [4, 7]: 520 ng/mL
concentration at 4 h [4, 7]: 289 ng/mL
concentration at 7 h [4, 7]: 208 ng/mL
AUC(0-t) ([4]; iv, 10 mg/kg, IV1 10 mg/kg): 3730 ng·h/mL
AUC(0-t) ([4]; iv, 10 mg/kg, IV2 10 mg/kg): 3570 ng·h/mL
concentration at 0.5 h ([4]; oral, 30 mg/kg, PO1 30 mg/kg): 60.8 ng/mL
concentration at 2 h ([4]; oral, 30 mg/kg, PO1 30 mg/kg): 35.8 ng/mL
concentration at 4 h ([4]; oral, 30 mg/kg, PO1 30 mg/kg): 44.5 ng/mL
concentration at 7 h ([4]; oral, 30 mg/kg, PO1 30 mg/kg): 37.6 ng/mL
concentration at 0.5 h ([4]; oral, 30 mg/kg, PO2 30 mg/kg): 78.7 ng/mL
concentration at 2 h ([4]; oral, 30 mg/kg, PO2 30 mg/kg): 59 ng/mL
concentration at 4 h ([4]; oral, 30 mg/kg, PO2 30 mg/kg): 57.1 ng/mL
concentration at 7 h ([4]; oral, 30 mg/kg, PO2 30 mg/kg): 16.1 ng/mL
AUC(0-t) ([4]; po, 30 mg/kg, PO1 30 mg/kg): 291 ng·h/mL
AUC(0-t) ([4]; po, 30 mg/kg, PO2 30 mg/kg): 349 ng·h/mL
half-life ([4]; mice, IP injection): 0.5 to 1 h
half-life ([4]; mice, IV or PO study of Table 2): 1.5 to 2 h
bio-availability following IV administration ([4]; mice, IV): bio-available following IV administration
peak plasma levels, G9 compared with 067 ([4]; mice, IV): higher peak levels
oral bio-availability ([4]; mice, PO): poor oral bio-availability
side effects: behavior and mobility (A375 tumors; 7.5 or 15 mg/kg daily IP): did not observe changes in behavior or mobility; also recorded: did not have any notable side effects
A375 tumor growth (A375 tumors; [8]): suppressed A375 tumor growth; also recorded: completely suppressed tumor growth; also recorded: reduced tumor growth
animal weight (A375 tumors; [8]): modest impact on animal weight; also recorded: not significantly different
IC50 [5]: 1 µM
